Like-named read-outs stand apart in the source and are kept apart here.
What was measured:
[1] = cited from earlier work
[2] = Safety and tolerability of single-dose ponatinib 45 mg in healthy subjects; format: in vivo, human
[3] = format: in vivo, human; details: for V/F, geometric mean (%CV): single oral 45 mg tablet

Structure (SMILES)	Effect of food intake on PK [1]	Subjects with AEs at least possibly related to treatment, n (%) ([2]; 24 subjects, all regimens)	Severe AEs ([2]; all regimens)	Treatment-related increased lipase levels ([2]; all regimens)	Vital signs, ECG parameters or physical examinations ([2]; all regimens)	High triacylglycerol lipase levels ([2]; clinically significant abnormality)	Tolerability ([2]; healthy subjects, regardless of food intake regimen)	Clinically significant abnormalities (laboratory), number ([2]; in a total of five subjects)	Time at which maximum mean concentrations were reached ([3]; across high-fat, low-fat and fasted regimens, single 45-mg tablet) [h]	Quantifiability of ponatinib in plasma ([3]; all three treatment regimens, lower limit 0·5 ng/mL)	V/F, geometric mean (%CV) ([3]; fasted)	V/F, geometric mean (%CV) ([3]; high-fat meal)	V/F, geometric mean (%CV) ([3]; low-fat meal)	Time post-dose at which maximum plasma concentration was observed ([3]; overall, fasting, high-fat and low-fat) [h]
Cc1nc(Nc2ncc(C(=O)Nc3c(C)cccc3Cl)s2)cc(N2CCN(CCO)CC2)n1 [dasatinib]	unaffected by food intake													
Cc1ccc(C(=O)Nc2ccc(CN3CCN(C)CC3)c(C(F)(F)F)c2)cc1C#Cc1cnc2cccnn12 [ponatinib, 3-[2-(imidazo[1,2-b]pyridazin-3-yl)ethynyl]-4-methyl-N-{4-[(4-methylpiperazin-1-yl)methyl]-3-(trifluoromethyl)phenyl}benzamide]		10 (41·7%) subjects	no severe AEs	three	No clinically significant abnormalities	three	generally well tolerated	five	5 to 6	quantifiable through the 96-h sampling interval	1242 (30·0) L	1104 (28·8) L	1278 (37·6) L	~6

Source: PMC4286001 (Journal of Clinical Pharmacy and Therapeutics, 2013)
